Target: T1, sGC α1/β1 heterodimer (Homo sapiens, UniProt Q02108+Q02153)
T1 construct: expressed in transfected cells
T1 sequence (Q02108 1-690): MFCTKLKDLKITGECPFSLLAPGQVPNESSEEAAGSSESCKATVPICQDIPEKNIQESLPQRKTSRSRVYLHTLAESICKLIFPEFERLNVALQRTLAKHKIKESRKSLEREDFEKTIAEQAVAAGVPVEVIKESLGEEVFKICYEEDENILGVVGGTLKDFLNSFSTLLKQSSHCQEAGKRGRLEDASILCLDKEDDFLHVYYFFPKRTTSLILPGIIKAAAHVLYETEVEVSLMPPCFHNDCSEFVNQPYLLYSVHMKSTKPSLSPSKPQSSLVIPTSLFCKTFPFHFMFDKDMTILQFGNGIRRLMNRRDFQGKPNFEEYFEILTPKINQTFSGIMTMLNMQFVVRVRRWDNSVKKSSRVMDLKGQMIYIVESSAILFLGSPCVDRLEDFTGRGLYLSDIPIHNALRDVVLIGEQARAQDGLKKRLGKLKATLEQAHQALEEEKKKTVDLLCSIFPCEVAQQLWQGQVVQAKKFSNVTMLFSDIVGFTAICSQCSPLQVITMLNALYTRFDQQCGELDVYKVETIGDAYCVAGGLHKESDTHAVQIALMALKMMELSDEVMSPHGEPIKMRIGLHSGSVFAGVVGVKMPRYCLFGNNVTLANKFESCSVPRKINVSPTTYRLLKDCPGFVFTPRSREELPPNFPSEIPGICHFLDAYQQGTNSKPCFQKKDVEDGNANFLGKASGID
T1 sequence (Q02153 1-619): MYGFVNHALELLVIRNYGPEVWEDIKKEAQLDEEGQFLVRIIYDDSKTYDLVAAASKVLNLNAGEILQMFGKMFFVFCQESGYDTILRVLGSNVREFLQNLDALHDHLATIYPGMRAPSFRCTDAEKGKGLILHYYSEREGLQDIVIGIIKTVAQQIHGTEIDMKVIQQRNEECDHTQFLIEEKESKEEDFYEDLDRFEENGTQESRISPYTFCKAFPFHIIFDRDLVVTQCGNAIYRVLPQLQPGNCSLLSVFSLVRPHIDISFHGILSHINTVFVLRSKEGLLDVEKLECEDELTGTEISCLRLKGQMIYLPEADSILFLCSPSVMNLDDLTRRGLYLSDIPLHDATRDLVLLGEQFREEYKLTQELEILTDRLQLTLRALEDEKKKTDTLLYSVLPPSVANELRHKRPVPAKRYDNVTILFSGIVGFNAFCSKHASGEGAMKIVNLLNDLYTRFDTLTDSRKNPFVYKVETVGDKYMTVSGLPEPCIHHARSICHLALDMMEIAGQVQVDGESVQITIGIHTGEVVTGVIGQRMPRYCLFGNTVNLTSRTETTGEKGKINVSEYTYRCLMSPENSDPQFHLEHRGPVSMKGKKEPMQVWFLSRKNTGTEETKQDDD
Assay: Cell-Based sGC Functional Assay (CASA Assay), cGMP generation in CHO-K1/sGC cells
Details: maximum cGMP production of Compound A set to 100% activation, read-out: % Act. (percent activation relative to Compound A)
Text: sGC is a heme-containing enzyme that converts GTP to secondary messenger cGMP. Increases in cGMP levels affect several physiological processes including vasorelaxation through multiple downstream pathways. […] Heme-dependent activators (HDAs) preferentially activate sGC containing a ferrous heme group. To determine the effect of sGC activators on enzyme activity, the CASA assay was developed to monitor the generation of cGMP in a cell line that stably expresses the heterodimeric sGC protein.
A CHO-K1 cell line stably expressing the sGC α1/β1 heterodimer was generated using a standard transfection protocol. CHO-K1 cells were transfected with plasmids pIREShyghsGCα1 and pIRESneo-hsGCβ1 simultaneously using FUGENE reagent. Clones that stably express both subunits were selected with hygromycin and neomycin for ˜2 weeks. Clone #7 was chosen for the assay and was designated CHO-K1/sGC. CHO-K1/sGC cells were maintained in F-K12 medium containing 10% heat-inactivated Fetal Bovine Serum (FBS), 100 μg/mL penicillin/streptomycin, 0.5 mg/mL hygromycin and 0.25 mg/mL G418. The cells were then cryopreserved in LN2. On the day of the assay, cells thawed and resuspended in EBSS Assay Buffer (Sigma, E3024) supplemented with 5 mM MgCl2, 10 mM HEPES (4-(2-hydroxyethyl)piperazine-1-ethanesulfonic acid) and 0.05% BSA (bovine serum albumin) (EAB) and cell density was then adjusted to 4×10^5/mL with EAB. IBMX (3-isobutyl-1-methylxanthin, 0.5 mM) was added to inhibit degradation of cGMP. Compounds were diluted from DMSO stock solutions and added to the assay at a final DMSO concentration of 2.5%. Cells were incubated with compounds in the presence and absence of 1 μM of Diethylenetriamine/nitric oxide adduct (DETA-NO; Sigma, 17018) for 1 hr at 37° C. At the end of the incubation period, the reaction was terminated and the cells were lysed with the detection reagents from Cisbio Kits. The level of intracellular cGMP was determined using an HTRF-based assay kit (CisBio, 62GM2PEC), which detects the displacement of a fluorescence labeled cGMP from its specific antibody. The cGMP produced by test compounds was directly compared to the maximum cGMP production (this value was set to equal 100% activation.) of the published sGC-HDA Compound A:
[drawing 298] (Example 1 in WO 2010/065275, published Jun. 10, 2010). The test compounds' activities were then expressed as a percentage of Compound A, the standard in every experiment. This percent activation was calculated either in the presence or absence of DETA-NO which was then plotted. IP and maximum fold induction was derived using ADA analysis software for 4P fit.

Row | Emax [%] | Structure (SMILES)
1 | 100 | C[C@@]1(c2ccc(F)cc2)C(=O)Nc2nc(-c3cn4ncnc4c(Cc4ccc(F)cc4)n3)nc(O)c21 [Example 162B, (S)-2-(8-(4-fluorobenzyl)-[1,2,4]triazolo[1,5-a]pyrazin-6-yl)-5-(4-fluorophenyl)-4-hydroxy-5-methyl-5H-pyrrolo[2,3-d]pyrimidin-6(7H)-one]
2 | 139 | Nc1nc(-c2cn3ncnc3c(CCC(F)(F)C(F)(F)F)n2)nc2c1C(c1ccc(C(F)(F)F)cn1)(C1CC1)C(=O)N2 (centres unmarked) [Example 15A, 4-amino-5-cyclopropyl-2-(8-(3,3,4,4,4-pentafluorobutyl)-[1,2,4]triazolo[1,5-a]pyrazin-6-yl)-5-(5-(trifluoromethyl)pyridin-2-yl)-5H-pyrrolo[2,3-d]pyrimidin-6(7H)-one]
3 | 187 | CCCCc1nc(-c2nc(N)c3c(n2)NC(=O)C3(C)c2ccc(Cl)cc2)cn2ncnc12 (centres unmarked) [Example 63A, 4-amino-2-(8-butyl-[1,2,4]triazolo[1,5-a]pyrazin-6-yl)-5-(4-chlorophenyl)-5-methyl-5H-pyrrolo[2,3-d]pyrimidin-6(7H)-one]
4 | 82 | CCCCc1nc(-c2nc(N)c3c(n2)NC(=O)C3(c2ccc(C)cn2)C2CC2)cn2ncnc12 (racemic) [Example 72B, 4-amino-2-(8-butyl-[1,2,4]triazolo[1,5-a]pyrazin-6-yl)-5-cyclopropyl-5-(5-methylpyridin-2-yl)-5H-pyrrolo[2,3-d]pyrimidin-6(7H)-one]
5 | 77 | CCCc1nc(-c2nc(O)c3c(n2)NC(=O)C3(C)c2ccc(Cl)cc2)cn2nc(C)nc12 (centres unmarked) [Example 168A, 5-(4-chlorophenyl)-4-hydroxy-5-methyl-2-(2-methyl-8-propyl-[1,2,4]triazolo[1,5-a]pyrazin-6-yl)-5H-pyrrolo[2,3-d]pyrimidin-6(7H)-one]
6 | 106 | CC1(c2ccccc2)C(=O)Nc2nc(-c3cn4ncnc4c(CCC(F)(F)C(F)(F)F)n3)nc(O)c21 (centres unmarked) [Example 128B, 4-hydroxy-5-methyl-2-(8-(3,3,4,4,4-pentafluorobutyl)-[1,2,4]triazolo[1,5-a]pyrazin-6-yl)-5-phenyl-5H-pyrrolo[2,3-d]pyrimidin-6(7H)-one]
7 | 108 | Nc1nc(-c2cn3ncnc3c(CCC(F)(F)C(F)(F)F)n2)nc2c1C(c1cn(C3CC3)nn1)(C1CC1)C(=O)N2 (centres unmarked) [Example 96B, 4-amino-5-cyclopropyl-5-(1-cyclopropyl-1H-1,2,3-triazol-4-yl)-2-(8-(3,3,4,4,4-pentafluorobutyl)-[1,2,4]triazolo[1,5-a]pyrazin-6-yl)-5H-pyrrolo[2,3-d]pyrimidin-6(7H)-one]
8 | 167 | CCCc1nc(-c2nc(N)c3c(n2)NC(=O)C3(C)c2ccc(F)cn2)cn2nc(C)nc12 (centres unmarked) [Example 92B, 4-amino-5-(5-fluoropyridin-2-yl)-5-methyl-2-(2-methyl-8-propyl-[1,2,4]triazolo[1,5-a]pyrazin-6-yl)-5H-pyrrolo[2,3-d]pyrimidin-6(7H)-one]
9 | 163 | C[C@@]1(c2ccc(F)cc2)C(=O)Nc2nc(-c3cn4ncnc4c(CCCC(F)(F)F)n3)nc(N)c21 [Example 23A, (S)-4-amino-5-(4-fluorophenyl)-5-methyl-2-(8-(4,4,4-trifluorobutyl)-[1,2,4]triazolo[1,5-a]pyrazin-6-yl)-5,7-dihydro-6H-pyrrolo[2,3-d]pyrimidin-6-one]
10 | 133 | C[C@@]1(c2ccc(F)cc2)C(=O)Nc2nc(-c3cn4ncnc4c(CCC(F)(F)F)n3)ncc21 [Example 174A, (S)-5-(4-fluorophenyl)-5-methyl-2-(8-(3,3,3-trifluoropropyl)-[1,2,4]triazolo[1,5-a]pyrazin-6-yl)-5,7-dihydro-6H-pyrrolo[2,3-d]pyrimidin-6-one]
11 | 154 | CC1(c2nnc(C(F)(F)F)o2)C(=O)Nc2nc(-c3cn4ncnc4c(CCCC(F)(F)F)n3)nc(N)c21 (centres unmarked) [Example 101A, 4-amino-5-methyl-2-(8-(4,4,4-trifluorobutyl)-[1,2,4]triazolo[1,5-a]pyrazin-6-yl)-5-(5-(trifluoromethyl)-1,3,4-oxadiazol-2-yl)-5H-pyrrolo[2,3-d]pyrimidin-6(7H)-one]
12 | 94 | CC1(c2ccc(F)c(Cl)c2)C(=O)Nc2nc(-c3cn4ncnc4c(CCCC(F)(F)F)n3)nc(O)c21 (centres unmarked) [Example 147B, 5-(3-chloro-4-fluorophenyl)-4-hydroxy-5-methyl-2-(8-(4,4,4-trifluorobutyl)-[1,2,4]triazolo[1,5-a]pyrazin-6-yl)-5,7-dihydro-6H-pyrrolo[2,3-d]pyrimidin-6-one]
13 | 75 | CC1(c2ccc(O)cn2)C(=O)Nc2nc(-c3cn4ncnc4c(CCCC(F)(F)F)n3)nc(N)c21 (centres unmarked) [Example 111A, 4-amino-5-(5-hydroxypyridin-2-yl)-5-methyl-2-(8-(4,4,4-trifluorobutyl)-[1,2,4]triazolo[1,5-a]pyrazin-6-yl)-5H-pyrrolo[2,3-d]pyrimidin-6(7H)-one]
14 | 130 | CC1(c2ccc(F)cn2)C(=O)Nc2nc(-c3cn4ncnc4c(CCCC(F)(F)F)n3)nc(N)c21 (centres unmarked) [Example 22B, 4-amino-5-(5-fluoropyridin-2-yl)-5-methyl-2-(8-(4,4,4-trifluorobutyl)-[1,2,4]triazolo[1,5-a]pyrazin-6-yl)-5H-pyrrolo[2,3-d]pyrimidin-6(7H)-one]
15 | 90 | CCCCc1nc(-c2nc(O)c3c(n2)NC(=O)C3(C)c2cccc(F)c2)cn2ncnc12 (centres unmarked) [Example 171A, 2-(8-Butyl-[1,2,4]triazolo[1,5-a]pyrazin-6-yl)-5-(3-fluorophenyl)-4-hydroxy-5-methyl-5,7-dihydro-6H-pyrrolo[2,3-d]pyrimidin-6-one]
16 | 97 | Nc1nc(-c2cn3ncnc3c(CCCC(F)(F)F)n2)nc2c1C(c1ncc(C(F)(F)F)cn1)(C1CC1)C(=O)N2 (single isomer, unassigned) [Example 180B, 4-amino-5-cyclopropyl-2-(8-(4,4,4-trifluorobutyl)-[1,2,4]triazolo[1,5-a]pyrazin-6-yl)-5-(5-(trifluoromethyl)pyrimidin-2-yl)-5,7-dihydro-6H-pyrrolo[2,3-d]pyrimidin-6-one]
17 | 66 | CC1(c2cccc(F)c2)C(=O)Nc2nc(-c3cn4ncnc4c(CCC(F)(F)C(F)(F)F)n3)nc(O)c21 (centres unmarked) [Example 129B, 5-(3-fluorophenyl)-4-hydroxy-5-methyl-2-(8-(3,3,4,4,4-pentafluorobutyl)-[1,2,4]triazolo[1,5-a]pyrazin-6-yl)-5,7-dihydro-6H-pyrrolo[2,3-d]pyrimidin-6-one]
